Values joined by “and” are separate entries in the source; they are usually repeats but may differ in a detail not shown here. Equal values may be shown once. Inconclusive results are not listed.
System: CD8F1 mice, subcutaneous mammary adenocarcinoma, T/C%
Assay: NCI In Vivo Anticancer Drug Screen. Data for tumor model Mammary Adenocarcinoma CD8F1 (subcutaneous) in CD8F1
Settings: higher = larger tumour
How it was run: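 Antitumor activity is assessed in transplantable-tumor mice by comparing the treated group with a vehicle-treated control group. Survival or tumor size serves as the measure, reported as T divided by C.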

COc1cccc2c1C(=O)c1c(O)c3c(c(O)c1C2=O)C[C@@](O)(C(=O)COC(=O)c1cccnc1)C[C@@H]3OC1CC(N)C(O)C(C)O1 (stereo not given in full)
T/C (endpoint: mean tumor weight, dose: 0.5 mg/kg/injection, schedule: Q07DX006 (ip), vehicle: saline): 114 % of control
T/C (endpoint: mean tumor weight, dose: 1.0 mg/kg/injection, schedule: Q07DX006 (ip), vehicle: saline): 53 % of control
T/C (endpoint: mean tumor weight, dose: 2.0 mg/kg/injection, schedule: Q07DX006 (ip), vehicle: saline): 25 % of control
T/C (endpoint: median tumor weight (est.), dose: 0.5 mg/kg/injection, schedule: Q07DX005 (ip), vehicle: saline): 121 % of control
T/C (endpoint: median tumor weight (est.), dose: 1.0 mg/kg/injection, schedule: Q07DX005 (ip), vehicle: saline): 92 % of control
T/C (endpoint: median tumor weight (est.), dose: 2.0 mg/kg/injection, schedule: Q07DX005 (ip), vehicle: saline): 72 % of control and 75 % of control
T/C (endpoint: median tumor weight (est.), dose: 4.0 mg/kg/injection, schedule: Q07DX005 (ip), vehicle: saline): 90 % of control

CS(C)=O
T/C (endpoint: median tumor weight (est.), dose: 1.5 grams/kg/injection, schedule: Q07DX005 (ip), vehicle: saline): 106 % of control and 122 % of control

C[C@]12CC[C@@H]3c4ccc(OC(=O)Cc5ccc(N(CCCl)CCCl)cc5)cc4CC[C@H]3[C@@H]1CC[C@@H]2OC(=O)Cc1ccc(N(CCCl)CCCl)cc1
T/C (endpoint: mean tumor weight, dose: 25.0 mg/kg/injection, schedule: Q07DX005 (ip), vehicle: saline with Tween-80): 54 % of control
T/C (endpoint: mean tumor weight, dose: 50.0 mg/kg/injection, schedule: Q07DX005 (ip), vehicle: saline with Tween-80): 47 % of control
T/C (endpoint: mean tumor weight, dose: 100.0 mg/kg/injection, schedule: Q07DX005 (ip), vehicle: saline with Tween-80): 45 % of control
T/C (endpoint: mean tumor weight, dose: 200.0 mg/kg/injection, schedule: Q07DX005 (ip), vehicle: saline with Tween-80): 38 % of control
T/C (endpoint: mean tumor weight, dose: 400.0 mg/kg/injection, schedule: Q07DX005 (ip), vehicle: saline with Tween-80): 65 % of control
T/C (endpoint: median tumor weight (est.), dose: 25.0 mg/kg/injection, schedule: Q07DX005 (ip), vehicle: saline with Tween-80): 79 % of control and 93 % of control
T/C (endpoint: median tumor weight (est.), dose: 50.0 mg/kg/injection, schedule: Q07DX005 (ip), vehicle: saline with Tween-80): 45 % of control and 51 % of control
T/C (endpoint: median tumor weight (est.), dose: 400.0 mg/kg/injection, schedule: Q07DX005 (ip), vehicle: saline with Tween-80): 10 % of control

COC1CC(CC2CCC(C)C(C(C)C(=O)O)O2)OC2(OC(C)(C3CCC(C)(C4OC(C5OC(O)(CO)C(C)CC5C)CC4C)O3)CC2C)C1C (stereo not given)
T/C (endpoint: median tumor weight (est.), dose: 0.31 mg/kg/injection, schedule: Q07DX005 (ip), vehicle: Klucel (hydroxypropylcellulose) (HPC)): 112 % of control
T/C (endpoint: median tumor weight (est.), dose: 0.63 mg/kg/injection, schedule: Q07DX005 (ip), vehicle: Klucel (hydroxypropylcellulose) (HPC)): 398 % of control
T/C (endpoint: median tumor weight (est.), dose: 1.25 mg/kg/injection, schedule: Q07DX005 (ip), vehicle: Klucel (hydroxypropylcellulose) (HPC)): 390 % of control
T/C (endpoint: median tumor weight (est.), dose: 2.5 mg/kg/injection, schedule: Q07DX005 (ip), vehicle: Klucel (hydroxypropylcellulose) (HPC)): 47 % of control
T/C (endpoint: median tumor weight (est.), dose: 5.0 mg/kg/injection, schedule: Q07DX005 (ip), vehicle: Klucel (hydroxypropylcellulose) (HPC)): 380 % of control
T/C (endpoint: median tumor weight (est.), dose: 10.0 mg/kg/injection, schedule: Q07DX005 (ip), vehicle: Klucel (hydroxypropylcellulose) (HPC)): 323 % of control

C[n+]1c(/C=C\C=C\N2CCCCC2)sc2ccccc21
T/C (endpoint: median tumor weight (est.), dose: 0.5 mg/kg/injection, schedule: Q07DX005 (ip), vehicle: Klucel (hydroxypropylcellulose) (HPC)): 114 % of control
T/C (endpoint: median tumor weight (est.), dose: 1.0 mg/kg/injection, schedule: Q07DX005 (ip), vehicle: Klucel (hydroxypropylcellulose) (HPC)): 108 % of control

COC12C(COC(N)=O)C3=C(C(=O)C(C)=C(N)C3=O)N1CC1C2N1C (stereo not given)
T/C (endpoint: median tumor weight (est.), dose: 2.0 mg/kg/injection, schedule: Q07DX005 (ip), vehicle: suspension in saline): 53 % of control
T/C (endpoint: median tumor weight (est.), dose: 4.0 mg/kg/injection, schedule: Q07DX005 (ip), vehicle: suspension in saline): 73 % of control
T/C (endpoint: median tumor weight (est.), dose: 8.0 mg/kg/injection, schedule: Q07DX005 (ip), vehicle: suspension in saline): 3 % of control

[N-]=[N+]=CC(=O)CCC(N)C(=O)O (stereo not given)
T/C (endpoint: median tumor weight (est.), dose: 3.12 mg/kg/injection, schedule: Q04DX005 (ip), vehicle: saline): 22 % of control and 43 % of control
T/C (endpoint: median tumor weight (est.), dose: 6.25 mg/kg/injection, schedule: Q04DX005 (ip), vehicle: saline): 31 % of control and 56 % of control
T/C (endpoint: median tumor weight (est.), dose: 12.5 mg/kg/injection, schedule: Q04DX005 (ip), vehicle: saline): 30 % of control and 50 % of control
T/C (endpoint: median tumor weight (est.), dose: 12.5 mg/kg/injection, schedule: Q07DX004 (ip), vehicle: saline): 85 % of control and 105 % of control
T/C (endpoint: median tumor weight (est.), dose: 12.5 mg/kg/injection, schedule: Q07DX005 (ip), vehicle: saline): 23 % of control and 30 % of control
T/C (endpoint: median tumor weight (est.), dose: 25.0 mg/kg/injection, schedule: Q01DX001 (ip), vehicle: saline): 35 % of control
T/C (endpoint: median tumor weight (est.), dose: 25.0 mg/kg/injection, schedule: Q07DX004 (ip), vehicle: saline): 23 % of control and 34 % of control
T/C (endpoint: median tumor weight (est.), dose: 25.0 mg/kg/injection, schedule: Q07DX005 (ip), vehicle: saline): 47 % of control
T/C (endpoint: median tumor weight (est.), dose: 50.0 mg/kg/injection, schedule: Q01DX001 (ip), vehicle: saline): 35 % of control
T/C (endpoint: median tumor weight (est.), dose: 50.0 mg/kg/injection, schedule: Q07DX004 (ip), vehicle: saline): 21 % of control and 31 % of control
T/C (endpoint: median tumor weight (est.), dose: 50.0 mg/kg/injection, schedule: Q07DX005 (ip), vehicle: saline): 16 % of control and 33 % of control
T/C (endpoint: median tumor weight (est.), dose: 100.0 mg/kg/injection, schedule: Q01DX001 (ip), vehicle: saline): 43 % of control
T/C (endpoint: median tumor weight (est.), dose: 100.0 mg/kg/injection, schedule: Q07DX005 (ip), vehicle: saline): 6 % of control
